PubChem BioAssay (NCI)
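How tested: cells in 96-well plates exposed to compound for 48 hours at five concentrations. GI50 marks 50% less growth. The concentration for full growth arrest is given as TGI.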

Key:
Assay in all cases: NCI-60 cell line screen, 48 h
786-0 renal = tested on: 786-0 renal
LOX IMVI melanoma = tested on: LOX IMVI melanoma
U251 CNS = tested on: U251 CNS
CAKI-1 renal = tested on: CAKI-1 renal
SK-MEL-28 melanoma = tested on: SK-MEL-28 melanoma
OVCAR-8 ovarian = tested on: OVCAR-8 ovarian
BT-549 breast = tested on: BT-549 breast
SNB-75 CNS = tested on: SNB-75 CNS
SK-MEL-2 melanoma = tested on: SK-MEL-2 melanoma
SF-268 CNS = tested on: SF-268 CNS
HOP-92 NSCLC = tested on: HOP-92 NSCLC
NCI/ADR-RES ovarian = tested on: NCI/ADR-RES ovarian
SK-OV-3 ovarian = tested on: SK-OV-3 ovarian
HOP-62 NSCLC = tested on: HOP-62 NSCLC
MDA-MB-435 = tested on: MDA-MB-435
KM12 colon = tested on: KM12 colon
SR leukemia = tested on: SR leukemia
HCT-116 colon = tested on: HCT-116 colon
HT29 colon = tested on: HT29 colon
SW-620 colon = tested on: SW-620 colon
RXF 393 renal = tested on: RXF 393 renal
NCI-H522 lung = tested on: NCI-H522 lung
CCRF-CEM leukemia = tested on: CCRF-CEM leukemia
HL-60(TB) leukemia = tested on: HL-60(TB) leukemia
MALME-3M melanoma = tested on: MALME-3M melanoma
COLO 205 colon = tested on: COLO 205 colon
K-562 leukemia = tested on: K-562 leukemia
IGROV1 ovarian = tested on: IGROV1 ovarian
M14 melanoma = tested on: M14 melanoma
PC-3 prostate = tested on: PC-3 prostate
HCT-15 colon = tested on: HCT-15 colon
DU-145 prostate = tested on: DU-145 prostate
MDA-MB-468 breast = tested on: MDA-MB-468 breast
SF-295 CNS = tested on: SF-295 CNS
RPMI-8226 leukemia = tested on: RPMI-8226 leukemia
SNB-19 CNS = tested on: SNB-19 CNS
NCI-H23 lung = tested on: NCI-H23 lung
SF-539 CNS = tested on: SF-539 CNS
HS 578T breast = tested on: HS 578T breast
A498 renal = tested on: A498 renal
A549 NSCLC = tested on: A549 NSCLC
MOLT-4 leukemia = tested on: MOLT-4 leukemia
MDA-MB-231 breast = tested on: MDA-MB-231 breast
UACC-62 melanoma = tested on: UACC-62 melanoma
TK-10 renal = tested on: TK-10 renal
UACC-257 melanoma = tested on: UACC-257 melanoma

SMILES: Cc1noc2c(Cc3ccccc3)nn(CC(=O)N/N=C/c3ccc(Cl)cc3)c(=O)c12
- GI50 (786-0 renal): 1.94 µM
- TGI (786-0 renal): 3.84 µM
- GI50 (LOX IMVI melanoma): 5.61 µM
- TGI (LOX IMVI melanoma): > 100 µM
- GI50 (U251 CNS): 3.64 µM
- TGI (U251 CNS): > 100 µM
- GI50 (CAKI-1 renal): 2.88 µM
- TGI (CAKI-1 renal): 11.1 µM
- GI50 (SK-MEL-28 melanoma): > 100 µM
- TGI (SK-MEL-28 melanoma): > 100 µM
- GI50 (OVCAR-8 ovarian): 3.18 µM
- TGI (OVCAR-8 ovarian): > 100 µM
- GI50 (BT-549 breast): 23.8 µM
- TGI (BT-549 breast): 90.6 µM
- GI50 (SNB-75 CNS): 1.59 µM
- TGI (SNB-75 CNS): 4.36 µM
- GI50 (SK-MEL-2 melanoma): 19.1 µM
- TGI (SK-MEL-2 melanoma): 38.4 µM
- GI50 (SF-268 CNS): 7.82 µM
- TGI (SF-268 CNS): > 100 µM
- GI50 (HOP-92 NSCLC): 3.01 µM
- TGI (HOP-92 NSCLC): 16.6 µM
- GI50 (NCI/ADR-RES ovarian): 4.93 µM
- TGI (NCI/ADR-RES ovarian): > 100 µM
- GI50 (SK-OV-3 ovarian): 2.34 µM
- TGI (SK-OV-3 ovarian): 5.85 µM
- GI50 (HOP-62 NSCLC): 2.06 µM
- TGI (HOP-62 NSCLC): 4.97 µM
- GI50 (MDA-MB-435): > 100 µM
- TGI (MDA-MB-435): > 100 µM
- GI50 (KM12 colon): > 100 µM
- TGI (KM12 colon): > 100 µM
- GI50 (SR leukemia): 31.2 µM
- TGI (SR leukemia): > 100 µM
- GI50 (HCT-116 colon): 3.16 µM
- TGI (HCT-116 colon): > 100 µM
- GI50 (HT29 colon): > 100 µM
- TGI (HT29 colon): > 100 µM
- GI50 (SW-620 colon): > 100 µM
- TGI (SW-620 colon): > 100 µM
- GI50 (RXF 393 renal): 2.15 µM
- TGI (RXF 393 renal): 6.87 µM
- GI50 (NCI-H522 lung): 15.4 µM
- TGI (NCI-H522 lung): > 100 µM
- GI50 (CCRF-CEM leukemia): 21.1 µM
- TGI (CCRF-CEM leukemia): > 100 µM
- GI50 (HL-60(TB) leukemia): > 100 µM
- TGI (HL-60(TB) leukemia): > 100 µM
- GI50 (MALME-3M melanoma): 4.23 µM
- TGI (MALME-3M melanoma): 29.1 µM
- GI50 (COLO 205 colon): 5.04 µM
- TGI (COLO 205 colon): > 100 µM
- GI50 (K-562 leukemia): 88.6 µM
- TGI (K-562 leukemia): > 100 µM
- GI50 (IGROV1 ovarian): 6.95 µM
- TGI (IGROV1 ovarian): 31.2 µM
- GI50 (M14 melanoma): 43.6 µM
- TGI (M14 melanoma): > 100 µM
- GI50 (PC-3 prostate): > 100 µM
- TGI (PC-3 prostate): > 100 µM
- GI50 (HCT-15 colon): > 100 µM
- TGI (HCT-15 colon): > 100 µM
- GI50 (DU-145 prostate): > 100 µM
- TGI (DU-145 prostate): > 100 µM
- GI50 (MDA-MB-468 breast): 8.11 µM
- TGI (MDA-MB-468 breast): 36.2 µM
- GI50 (SF-295 CNS): 3.19 µM
- TGI (SF-295 CNS): 8.64 µM
- GI50 (RPMI-8226 leukemia): 8.98 µM
- TGI (RPMI-8226 leukemia): > 100 µM
- GI50 (SNB-19 CNS): 8.48 µM
- TGI (SNB-19 CNS): 26.7 µM
- GI50 (NCI-H23 lung): 10.2 µM
- TGI (NCI-H23 lung): 53.7 µM
- GI50 (SF-539 CNS): 14.1 µM
- TGI (SF-539 CNS): 35.9 µM
- GI50 (HS 578T breast): 2.31 µM
- TGI (HS 578T breast): 6.23 µM
- GI50 (A498 renal): 1.65 µM
- TGI (A498 renal): 3.11 µM
- GI50 (A549 NSCLC): 3.87 µM
- TGI (A549 NSCLC): > 100 µM
- GI50 (MOLT-4 leukemia): > 100 µM
- TGI (MOLT-4 leukemia): > 100 µM
- GI50 (MDA-MB-231 breast): 2.59 µM
- TGI (MDA-MB-231 breast): 7.3 µM
- GI50 (UACC-62 melanoma): 18.3 µM
- TGI (UACC-62 melanoma): 86 µM
- GI50 (TK-10 renal): 1.9 µM
- TGI (TK-10 renal): 4.74 µM
- GI50 (UACC-257 melanoma): > 100 µM
- TGI (UACC-257 melanoma): > 100 µM
